According to article PMC5331433, “Ustiloxin G, a New Cyclopeptide Mycotoxin from Rice False Smut Balls” (Toxins, 2017):

Legend:
HCT116 = assay: Cytotoxicity, MTT assay, HCT116; type: cell-based, human; settings: colon cancer cells, 24 h treatment, absorbance 570 nm, three replicates
Protocol: (§1) Cytotoxicity of the compounds were tested against human carcinoma cells using the microculture methyl-thiazolyl-tetrazolium (MTT) assay as described previously. Briefly, the cell lines were maintained in a humidified atmosphere containing 5% CO2 at 37 °C. For preparing working solution, 1 μmol of each purified ustiloxin was dissolved in 10 mL of ultrapure water to obtain the stock solution (100 μM), which was further diluted to a series of concentrations (50, 25, 12.5, 6.25, 3.125, 1, 0.1, 1 × 10^−2, 1 × 10^−3, 1 × 10^−4, 1 × 10^−5 μM) with ultrapure water. Normally, 200 μL of the cell suspensions (5 × 10^4 cells/mL) was plated in 96-well culture plates at 37 °C. After 12 h, 20 μL of working solution was added to each well respectively and cultured at 37 °C for 24 h. Then, MTT was dissolved in saline to 5 mg/mL, and 20 μL of this solution was added to each well. After 4 h, the medium was removed, and then 100 μL of DMSO was added to dissolve any formazan crystals formed. Absorbance was then determined at 570 nm. The cell lines of colon cancer cells (HCT-116), non-small-cell lung carcinoma cells (NCI-H1650), gastric cancer cells (BGC-823), and liver hepatocellular carcinoma cells (HepG2) were tested for all isolated compounds. In addition, lung adenocarcinoma cells (A549) were tested on ustiloxins A (2), B (3), and G (1), and melanoma cells (A375) were tested on ustiloxin G (1). Ultrapure water and taxol were used as the negative and positive controls, respectively. All experiments were performed with three replicates.

NCI-H1650 = assay: Cytotoxicity, MTT assay, NCI-H1650; type: cell-based, human; settings: non-small-cell lung carcinoma cells, 24 h treatment, absorbance 570 nm, three replicates
Protocol: as §1

BGC-823 = assay: Cytotoxicity, MTT assay, BGC-823; type: cell-based, human; settings: gastric cancer cells, 24 h treatment, absorbance 570 nm, three replicates
Protocol: as §1

HepG2 = assay: Cytotoxicity, MTT assay, HepG2; type: cell-based, human; settings: liver hepatocellular carcinoma cells, 24 h treatment, absorbance 570 nm, three replicates
Protocol: as §1

[1] = tested on: rice (Oryza sativa) seeds, radicle; assay: Inhibition of radicle elongation of rice seeds; settings: 48 h, 25 °C, dark, mean of triplicate ± SD
Protocol: (§2) Phytotoxicity of the compounds was evaluated by their inhibitory activities on the radicle and germ elongation of rice (Oryza sativa) seeds. Two varieties (Lijiang and Zhonghua 11) of the seeds, which were obtained from Prof. Zejian Guo (Department of Plant Pathology and collected in 2015, China Agricultural University) were used.
(§3) The bioassay was performed using the method described previously with some modifications. Briefly, five 3-day germinated rice seeds of each rice variety were sown onto each well of a 24-well plate, containing 200 μL of working solution. For preparing working solution, 1 mg of each purified compound was dissolved in 1 mL of ultrapure water to obtain the stock solution (1 mg/mL), which was further diluted to a series of concentrations (200, 100, 50, 20, and 10 μg/mL) with ultrapure water. The ultrapure water was used as the negative control, and glyphosate (N-(phosphonomethyl)glycine) at the same concentrations as the positive control. Plates were incubated in a moist chamber at 25 °C in the dark. The length of each radicle or germ was measured after treatment for 48 h. The inhibition of radicle or germ elongation was calculated as follows: Inhibition (%) = [(Lc − Lt)/Lc] × 100, where Lc is the radicle or germ length of the control group, and Lt is the length of the treated group.
(§4) All experiments were performed with three replicates, and the results were represented by their mean values and the standard deviations (SD). The data were carried out using analysis of variance (one-way ANOVA) to detect significant differences by PROC ANOVA of SAS version 8.2.

[2] = tested on: rice (Oryza sativa) seeds, germ; assay: Inhibition of germ elongation of rice seeds; settings: 48 h, 25 °C, dark, mean of triplicate ± SD
Protocol: as §2, §3, §4

A549 = assay: Cytotoxicity, MTT assay, A549; type: cell-based, human; settings: lung adenocarcinoma cells, 24 h treatment, absorbance 570 nm, three replicates
Protocol: as §1

rice seedlings = assay: Abnormal swelling of roots and germs of rice seedlings; set-up: species or system Oryza sativa; settings: observation in words; Figure 3B shows 200 µg/mL of ustiloxin G, variety Lijiang
Protocol: as §3

| Compound | Inhibition Ratio (%) Seed Radicle Var. Lijiang ([1]; 10 µg/mL) | Inhibition Ratio (%) Seed Radicle Var. Zhonghua 11 ([1]; 10 µg/mL) | Inhibition Ratio (%) Seed Radicle Var. Lijiang ([1]; 20 µg/mL) | Inhibition Ratio (%) Seed Radicle Var. Zhonghua 11 ([1]; 20 µg/mL) | Inhibition Ratio (%) Seed Radicle Var. Lijiang ([1]; 50 µg/mL) | Inhibition Ratio (%) Seed Radicle Var. Zhonghua 11 ([1]; 50 µg/mL) | Inhibition Ratio (%) Seed Radicle Var. Lijiang ([1]; 100 µg/mL) | Inhibition Ratio (%) Seed Radicle Var. Zhonghua 11 ([1]; 100 µg/mL) | Inhibition Ratio (%) Seed Radicle Var. Lijiang ([1]; 200 µg/mL) | Inhibition Ratio (%) Seed Radicle Var. Zhonghua 11 ([1]; 200 µg/mL) | Inhibition Ratio (%) Seed Germ Var. Lijiang ([2]; 10 µg/mL) [%] | Inhibition Ratio (%) Seed Germ Var. Zhonghua 11 ([2]; 10 µg/mL) | Inhibition Ratio (%) Seed Germ Var. Lijiang ([2]; 20 µg/mL) | Inhibition Ratio (%) Seed Germ Var. Zhonghua 11 ([2]; 20 µg/mL) [%] | Inhibition Ratio (%) Seed Germ Var. Lijiang ([2]; 50 µg/mL) | Inhibition Ratio (%) Seed Germ Var. Zhonghua 11 ([2]; 50 µg/mL) [%] | Inhibition Ratio (%) Seed Germ Var. Lijiang ([2]; 100 µg/mL) | Inhibition Ratio (%) Seed Germ Var. Zhonghua 11 ([2]; 100 µg/mL) | Inhibition Ratio (%) Seed Germ Var. Lijiang ([2]; 200 µg/mL) | Inhibition Ratio (%) Seed Germ Var. Zhonghua 11 ([2]; 200 µg/mL) | further results |
| --- | --- | --- | --- | --- | --- | --- | --- | --- | --- | --- | --- | --- | --- | --- | --- | --- | --- | --- | --- | --- | --- |
| CC[C@@]1(C)Oc2cc(ccc2O)[C@@H](O)[C@H](NC)C(=O)N[C@@H](C(C)C)C(=O)N[C@@H]1C(=O)NCC(=O)O [Ustiloxin D (4), ustiloxin D] | 4.43 ± 5.47 l % | 13.55% | 5.42 ± 3.45 l % | 23.31% | 11.89% | 41.47 ± 4.88 e % | 79.92 ± 6.26 c % | 90.79 ± 0.94 a % | 94.92 ± 0.79 a % | 93.90 ± 2.11 a % | 10.73 | 10.98% | 11.67% | 12.28 | 11.87% | 16.19 | 19.92% | 25.48% | 38.76 ± 5.68 e % | 31.86% | IC50 (HCT116): > 50 µM; IC50 (NCI-H1650): > 50 µM; IC50 (BGC-823): > 50 µM; IC50 (HepG2): > 50 µM |
| O=C(O)CNCP(=O)(O)O [Glyphosate, N-(phosphonomethyl)glycine, reference compound] | 36.84 ± 2.91 g % | 28.24% | 62.91 ± 5.03 d % | 41.52 ± 5.20 e % | 85.08% | 68.88 ± 3.85 c % | 93.64 ± 2.66 a % | 81.05 ± 2.04 b % | 95.61 ± 2.74 a % | 87.72% | 20.99 | 21.16% | 37.82 ± 4.05 e % | 29.21 | 59.32 ± 5.06 c % | 35.36 | 68.21% | 57.60 ± 3.44 a % | 71.36 ± 2.68 a % | 58.93 ± 6.04 a % |  |
| CC[C@@]1(C)Oc2cc(c([S+]([O-])C[C@@H](O)C[C@H](N)C(=O)O)cc2O)[C@@H](O)[C@H](NC)C(=O)N[C@@H](C)C(=O)N[C@@H]1C(=O)NCC(=O)O (stereo partly drawn) [Ustiloxin B (3), ustiloxin B] | 4.16 ± 0.66 l % | 11.90 ± 6.45 l % | 14.27% | 20.22% | 53.24 ± 4.98 e % | 54.78 ± 3.09 d % | 86.62 ± 1.98 b % | 87.80% | 95.32 ± 1.32 a % | 93.04 ± 2.10 a % | 13.54 | 3.30% | 20.63% | 12.02 | 37.98 ± 3.83 e % | 35.60 | 49.65 ± 2.13 d % | 44.72% | 64.39% | 55.61 ± 2.75 a % | IC50 (HCT116): 7.2 µM; IC50 (NCI-H1650): 21.6 µM; IC50 (BGC-823): 1.03 µM; IC50 (HepG2): 13 µM; IC50 (A549): > 50 µM; abnormal swelling of the roots and germs of rice seedlings (rice seedlings): abnormal swelling |
| CC[C@@]1(C)Oc2cc(c([S+]([O-])C[C@@H](O)C[C@H](N)C(=O)O)cc2O)[C@@H](O)[C@H](NC)C(=O)N[C@@H](C(C)C)C(=O)N[C@@H]1C(=O)NCC(=O)O (stereo partly drawn) [Ustiloxin A (2), ustiloxin A] | 17.83% | 12.27 ± 6.71 l % | 43.57 ± 0.61 f % | 56.16 ± 2.30 d % | 87.38 ± 0.79 b % | 89.14 ± 4.38 a % | 94.53 ± 0.36 a % | 93.72 ± 0.54 a % | 96.64 ± 0.36 a % | 95.29 ± 1.63 a % | 11.38 | 13.25% | 18.00% | 26.59 | 39.01 ± 6.84 e % | 42.04 | 50.59 ± 6.36 d % | 45.47% | 60.27% | 52.33% | IC50 (HCT116): > 50 µM; IC50 (NCI-H1650): > 50 µM; IC50 (BGC-823): 2.66 µM; IC50 (HepG2): > 50 µM; IC50 (A549): 3.12 µM; abnormal swelling of the roots and germs of rice seedlings (rice seedlings): abnormal swelling |
| CC[C@@]1(C)Oc2cc(ccc2O)[C@@H](O)[C@H](NC)C(=O)N[C@@H](C)C(=O)N[C@@H]1C(=O)NCC(=O)O [Ustiloxin F (5), ustiloxin F] | 5.07 ± 4.95 l % | 0.75% | 8.97% | 9.59 ± 3.80 l % | 22.17% | 16.51% | 26.72 ± 5.84 h % | 23.78% | 38.25% | 36.83% | 7.07 | 1.89 ± 4.86 p % | 7.90 ± 4.3 k1% | 9.36 | 9.14% | 14.97 | 15.16% | 17.77% | 24.57% | 18.71% | IC50 (HCT116): > 50 µM; IC50 (NCI-H1650): > 50 µM; IC50 (BGC-823): > 50 µM; IC50 (HepG2): > 50 µM |
